Assay results: US8900600B2, “Identification, optimization and use of cryptic HLA-A24 epitopes for immunotherapy” (VAXON Biotech, priority 2009, dated 2014)

What was measured:
[1] = test system: HLA-A*2402 transgenic mice; test: CTL induction in vivo in HLA-A*2402 transgenic mice (immunogenicity, Cr51 cytotoxic assay); set-up: key to Immunogenicity: (−) means that none of the mice vaccinated with the corresponding native peptides develops a specific immune response; (+) that less to 50% of vaccinated mice responded; (++) that more that 50% responded; key to Immunogenicity (class): −: (-) means that none of the mice vaccinated with the corresponding native peptides develops a specific immune response; (+) that less to 50% of vaccinated mice responded; (++) that more that 50% responded; conditions: for Immunogenicity: Table 5, mice vaccinated with 100 μg native peptide in IFA, share of mice with specific immune response; for Immunogenicity (X/Y): X mice develop a specific response for a total of Y mice vaccinated / Immunogenicity (class): Table 7, mice vaccinated with the native or modified peptide; for Immunogenicity (class): share of mice responding
Method: FIG. 1: Panels 1A-1F of FIG. 1 show immunogenicity of HLA-A*2402 cryptic peptides. HLA-A*2402 transgenic mice were vaccinated with the cryptic peptides following the described protocol and generated CTL were tested against T2-A24 targets loaded with peptide as indicated (NR non relevant peptide). Percentage of specific lysis was determined as: Lysis=(Experimental Release−Spontaneous Release)/(Maximal Release−Spontaneous Release)×100. Four CTL dilutions, corresponding to four CTL/target cells ratio were tested.
(§1) The transgenic mice used in the described experiments were obtained by crossing HLA-A24 transgenic mice previously described (Barra et al., 1993) and H2 Kb^− H2 Db^− knock out mice, transgenic for both human β2 microglobulin and CD8α chain (Perarnau et al., 1999).
Mice were injected subcutaneously with 100 μg of peptide emulsified in Incomplete Freund's Adjuvant (IFA) in the presence of 150 μg of the I-A^b restricted HBVcore128 T helper epitope (TPPAYRPPNAPIL, SEQ ID NO: 112). After 15 days, 5×10^7 spleen cells were stimulated twice in vitro with peptide (10 μM), at 6 days interval. On day 13 of culture, the bulk responder populations were tested for specific cytotoxicity against target cells expressing HLA-A*2402 and loaded with the same peptide.
(§2) Targets were labelled with 100 μCi of Cr^51 for 60 min, plated in 96-well V-bottomed plates (3×10^3 cell/well in 100 μL of RPMI 1640 medium) and, when necessary, pulsed with optimized or native peptides (1 μM) at 37° C. for 2 hours. Four dilutions of effector cells were then added in the wells and incubated at 37° C. for 4 hours. Percentage of specific lysis was determined as: Lysis=(Experimental Release−Spontaneous Release)/(Maximal Release−Spontaneous Release)×100.

[2] = test system: HLA-A*2402 transgenic mice; test: Cross-recognition assay: CTL from mice vaccinated with optimized peptide tested on targets loaded with native peptide; format: in vivo; conditions: Table 7, CTL of mice vaccinated with the optimized peptide
Method: FIG. 2: Panels 2A-2F of FIG. 2 show immunogenicity of HLA-A*2402 restricted optimized cryptic peptides. HLA-A*2402 transgenic mice were vaccinated with the optimized peptide following the described protocol and generated CTL were tested against T2-A24 targets loaded with the optimized (immunogenicity), the corresponding native (native peptide cross recognition) or an irrelevant (NR) peptide as indicated. Percentage of specific lysis was determined as: Lysis=(Experimental Release−Spontaneous Release)/(Maximal Release−Spontaneous Release)×100. Four CTL dilutions, corresponding to four CTL/target cells ratio were tested.
as §1
Mice were injected subcutaneously with 100 μg of optimized peptide emulsified in Incomplete Freund's Adjuvant (IFA) in the presence of 150 μg of the I-A^b restricted HBVcore128 T helper epitope (TPPAYRPPNAPIL, SEQ ID NO: 112). After 15 days, 5×10^7 spleen cells were stimulated firstly in vitro with the optimized peptide (10 μM), and secondly on day 6 of culture with the corresponding native peptide. On day 13, the bulk responder populations were tested for specific cytotoxicity against targets cells expressing HLA-A*2402 and loaded with the optimized, the native or an irrelevant peptide.
as §2

HLA-A*2402 = HLA-A*2402 (Homo sapiens, UniProt P04439, D101N/D140Y/D185E/E176V/E190D/F33S/G103R/G107R/I119L/I121M/I306V/K335N/L105A/L180Q/L300P/N151K/N90K/Q86E/Q94H/R106L/R138H/R89G/T104I/T345S/V100E/W191G/Y123F); test: Measurement of peptide relative affinity to HLA-A*2402 (surface expression on T2-A24 cells); format: cell-based; conditions: for RA (Relative Affinity): T2-A24 cells, 16 hours at 37° C., relative to reference peptide standard A24, concentration inducing 30% of HLA-A*2402 expression
Method: Measurement of Peptide Relative Affinity to HLA-A*2402.
The protocol used has been described previously (Rohrlich et al., 2003). Briefly, T2-A24 cells were incubated at 37° C. for 16 hours with peptides concentrations ranging from 100 μM to 0.1 μM, and then stained with 0041HA monoclonal antibody (mAb)(One Lambda, Inc.) to quantify the surface expression of HLA-A*2402. For each peptide concentration, the HLA-A*2402 specific staining was calculated as the percentage of staining obtained with 100 μM of the reference peptide standard A24 (AYIDNYNKF, SEQ ID NO: 111). The relative affinity (RA) was determined as: RA=(Concentration of each peptide that induces 30% of HLA-A*2402-expression/Concentration of the reference peptide that induces 30% of HLA-A*2402 expression).

PYGKGWDLM (Cryptic HLA-A2402 restricted peptide) [EphA2 47, native cryptic HLA-A*2402 restricted peptide]
Immunogenicity [1]: −
Immunogenicity (X/Y): X mice develop a specific response for a total of Y mice vaccinated [1]: 0/6
Immunogenicity (class) [1]: −
Native peptide cross recognition (X/Y): X mice develop a specific response for a total of Y mice vaccinated [2]: 7/9
Native peptide cross recognition (class) [2]: ++ ((++) that more that 50% responded)

PYNYLSTDV (Cryptic HLA-A2402 restricted peptide) [Her2/neu 300, native cryptic HLA-A*2402 restricted peptide]
RA (Relative Affinity) (HLA-A*2402): − ((−) means RA > 100)
Immunogenicity [1]: −
Immunogenicity (X/Y): X mice develop a specific response for a total of Y mice vaccinated [1]: 0/3
Immunogenicity (class) [1]: −

PYMRQFVAH (Cryptic HLA-A2402 restricted peptide) [TERT 770, native cryptic HLA-A*2402 restricted peptide]
RA (Relative Affinity) (HLA-A*2402): +/− ((+/−) 10 < RA < 100)
Immunogenicity [1]: −
Immunogenicity (X/Y): X mice develop a specific response for a total of Y mice vaccinated [1]: 0/3
Immunogenicity (class) [1]: −
Native peptide cross recognition (X/Y): X mice develop a specific response for a total of Y mice vaccinated [2]: 5/18
Native peptide cross recognition (class) [2]: + ((+) that less to 50% of vaccinated mice responded)

RYEFLWGPR (Cryptic HLA-A2402 restricted peptide) [MAGE 261, native cryptic HLA-A*2402 restricted peptide]
RA (Relative Affinity) (HLA-A*2402): − ((−) means RA > 100)
Immunogenicity [1]: −
Immunogenicity (X/Y): X mice develop a specific response for a total of Y mice vaccinated [1]: 0/3
Immunogenicity (class) [1]: −

RYGKGWDLL (Optimized peptide derived from cryptic peptides of SEQ ID Nos 1 to 9) [EphA2 47 R1L9]
Immunogenicity in HLA-A24 transgenic mice (in words) [1]: developed peptide specific CTLs
Immunogenicity (X/Y): X mice develop a specific response for a total of Y mice vaccinated [1]: 7/9
Immunogenicity (class) [1]: ++ ((++) that more that 50% responded)

RYWELSNHL (Optimized peptide derived from cryptic peptides of SEQ ID Nos 1 to 9) [EphA2 817 R1L9]
Immunogenicity in HLA-A24 transgenic mice (in words) [1]: developed peptide specific CTLs
Immunogenicity (X/Y): X mice develop a specific response for a total of Y mice vaccinated [1]: 2/3
Immunogenicity (class) [1]: ++ ((++) that more that 50% responded)

RYDGIPARL (Optimized peptide derived from cryptic peptides of SEQ ID Nos 1 to 9) [Her2/neu 922 R1L9, modified peptide]
Immunogenicity (X/Y): X mice develop a specific response for a total of Y mice vaccinated [1]: 0/9
Immunogenicity (class) [1]: −

RYLVQVQAL (Optimized peptide derived from cryptic peptides of SEQ ID Nos 1 to 9) [EphA2 502 R1]
Immunogenicity in HLA-A24 transgenic mice (in words) [1]: developed peptide specific CTLs
Immunogenicity (X/Y): X mice develop a specific response for a total of Y mice vaccinated [1]: 3/3
Immunogenicity (class) [1]: ++ ((++) that more that 50% responded)

RYMRQFVAL (Optimized peptide derived from cryptic peptides of SEQ ID Nos 1 to 9) [TERT 770 R1L9]
Immunogenicity in HLA-A24 transgenic mice (in words) [1]: developed peptide specific CTLs
Immunogenicity (X/Y): X mice develop a specific response for a total of Y mice vaccinated [1]: 12/18
Immunogenicity (class) [1]: ++ ((++) that more that 50% responded)

TYLVQVQAL (Cryptic HLA-A2402 restricted peptide) [EphA2 502, native cryptic HLA-A*2402 restricted peptide]
Immunogenicity [1]: −
Immunogenicity (X/Y): X mice develop a specific response for a total of Y mice vaccinated [1]: 0/3
Immunogenicity (class) [1]: −
Native peptide cross recognition (X/Y): X mice develop a specific response for a total of Y mice vaccinated [2]: 2/3
Native peptide cross recognition (class) [2]: ++ ((++) that more that 50% responded)

PYGCLLDHV (Cryptic HLA-A2402 restricted peptide) [Her2/neu 802]
Binding to HLA-A*2402 (in words) (HLA-A*2402): binds to the HLA-A*2402
RA (Relative Affinity) (HLA-A*2402): + ((+) 5 < RA < 10)
Immunogenicity in HLA-A24 transgenic mice (in words) [1]: immunogenic
Immunogenicity [1]: ++ ((++) that more that 50% responded)

RYVSRLLGI (Optimized peptide derived from cryptic peptides of SEQ ID Nos 1 to 9) [HER 780 R1]
Immunogenicity in HLA-A24 transgenic mice (in words) [1]: developed peptide specific CTLs
Immunogenicity (X/Y): X mice develop a specific response for a total of Y mice vaccinated [1]: 4/9
Immunogenicity (class) [1]: + ((+) that less to 50% of vaccinated mice responded)

KYGVLLKTL (Optimized peptide derived from cryptic peptides of SEQ ID Nos 1 to 9) [TERT 403 K1L9]
Immunogenicity in HLA-A24 transgenic mice (in words) [1]: developed peptide specific CTLs
Immunogenicity (X/Y): X mice develop a specific response for a total of Y mice vaccinated [1]: 4/15
Immunogenicity (class) [1]: + ((+) that less to 50% of vaccinated mice responded)

PYVSRLLGI (Cryptic HLA-A2402 restricted peptide) [Her2/neu 780, native cryptic HLA-A*2402 restricted peptide]
Binding to HLA-A*2402 (in words) (HLA-A*2402): strongly binds
Immunogenicity in HLA-A24 transgenic mice (in words) [1]: non immunogenic
Immunogenicity [1]: −
Immunogenicity (X/Y): X mice develop a specific response for a total of Y mice vaccinated [1]: 0/8
Immunogenicity (class) [1]: −
Native peptide cross recognition (X/Y): X mice develop a specific response for a total of Y mice vaccinated [2]: 3/9
Native peptide cross recognition (class) [2]: + ((+) that less to 50% of vaccinated mice responded)

RYEFLWGPL (Optimized peptide derived from cryptic peptides of SEQ ID Nos 1 to 9) [MAGE 261 L9, modified peptide]
Immunogenicity (X/Y): X mice develop a specific response for a total of Y mice vaccinated [1]: 0/9
Immunogenicity (class) [1]: −

PYDGIPARE (Cryptic HLA-A2402 restricted peptide) [Her2/neu 922, native cryptic HLA-A*2402 restricted peptide]
RA (Relative Affinity) (HLA-A*2402): − ((−) means RA > 100)

PYWELSNHE (Cryptic HLA-A2402 restricted peptide) [EphA2 817, native cryptic HLA-A*2402 restricted peptide]
Immunogenicity [1]: −
Immunogenicity (X/Y): X mice develop a specific response for a total of Y mice vaccinated [1]: 0/3
Immunogenicity (class) [1]: −
Native peptide cross recognition (X/Y): X mice develop a specific response for a total of Y mice vaccinated [2]: 2/3
Native peptide cross recognition (class) [2]: ++ ((++) that more that 50% responded)

PYGVLLKTH (Cryptic HLA-A2402 restricted peptide) [TERT 403, native cryptic HLA-A*2402 restricted peptide]
RA (Relative Affinity) (HLA-A*2402): − ((−) means RA > 100)
Immunogenicity [1]: −
Immunogenicity (X/Y): X mice develop a specific response for a total of Y mice vaccinated [1]: 0/3
Immunogenicity (class) [1]: −
Native peptide cross recognition (X/Y): X mice develop a specific response for a total of Y mice vaccinated [2]: 3/15
Native peptide cross recognition (class) [2]: + ((+) that less to 50% of vaccinated mice responded)

RYNYLSTDL (Optimized peptide derived from cryptic peptides of SEQ ID Nos 1 to 9) [Her2/neu 300 R1L9, modified peptide]
Immunogenicity (X/Y): X mice develop a specific response for a total of Y mice vaccinated [1]: 0/9
Immunogenicity (class) [1]: −
